pEC50, pKi: −log10 of the molar value.

Data on 16 molecules can be found in ChEMBL document CHEMBL1143058, “Evaluation of a diverse set of potential P1 carboxylic acid bioisosteres in hepatitis C virus NS3 protease inhibitors” (Bioorg Med Chem, 2007).

Assay [1] can be described thus: Inhibition of HCV NS3 protease in presence of pH 7.5 HEPES buffer. Also noted: species or system Hepacivirus hominis.
In another assay the test system is Hepatitis C virus. The assay can be described thus: Inhibition of HCV by subgenomic HCV replication assay. Type of assay: functional, organism-based, Hepacivirus hominis.
Assay [2] can be described thus: Inhibition of HCV NS3 protease in presence of pH 6.0 buffer. Also noted: species or system Hepacivirus hominis.
The nature of assay [3]: Inhibition of HCV NS3 protease in presence of pH 7.0 buffer. Further details: species or system Hepacivirus hominis.
The nature of assay [4]: Inhibition of HCV NS3 protease in presence of pH 8.0 buffer. Also noted: species or system Hepacivirus hominis.

Regarding `C=C[C@@H]1C[C@]1(NC(=O)[C@@H]1C[C@@H](Oc2cc(-c3ccccc3)nc3cc(OC)ccc23)CN1C(=O)[C@@H](NC(=O)OC(C)(C)C)C(C)(C)C)C(=O)O`, the negative-log Ki (pKi) in assay [1] is 7.70; in assay [2], 9.92; in assay [3], 9.17; in assay [4], 8.06. This molecule showed a negative-log EC50 (pEC50) in the assay with Hepatitis C virus of 6.85.

With `C=C[C@@H]1C[C@]1(NC(=O)[C@@H]1C[C@@H](Oc2cc(-c3ccccc3)nc3cc(OC)ccc23)CN1C(=O)[C@@H](NC(=O)OC(C)(C)C)C(C)(C)C)C(=O)NC#N`, the pKi in assay [1] was 8.22; in assay [2] it was 9.85; in assay [3], 9.29; in assay [4], 7.97. The molecule further gave a pEC50 in the assay with Hepatitis C virus of 5.92.

As to `C=C[C@@H]1C[C@]1(NC(=O)[C@@H]1C[C@@H](Oc2cc(-c3ccccc3)nc3cc(OC)ccc23)CN1C(=O)[C@@H](NC(=O)OC(C)(C)C)C(C)(C)C)C(=O)NS(=O)(=O)c1ccc(C)cc1`, the negative-log Ki (pKi) in assay [1] was 9.66; in assay [2], 11.22; in assay [3], 10.25; in assay [4] it was 9.41. This molecule also showed a pEC50 with Hepatitis C virus of 8.22.

As to `C=C[C@@H]1C[C@]1(NC(=O)[C@@H]1C[C@@H](Oc2cc(-c3ccccc3)nc3cc(OC)ccc23)CN1C(=O)[C@@H](NC(=O)OC(C)(C)C)C(C)(C)C)C(=O)NNc1ccccc1`, the pKi in assay [1] is 6.25; in assay [2], 7.55; in assay [3], 6.95; in assay [4], 6.54. The same molecule had a negative logarithm of the EC50 (pEC50) in the assay with Hepatitis C virus of less than 5.00.

As to `C=C[C@@H]1C[C@]1(NC(=O)[C@@H]1C[C@@H](Oc2cc(-c3ccccc3)nc3cc(OC)ccc23)CN1C(=O)[C@@H](NC(=O)OC(C)(C)C)C(C)(C)C)C(=O)NNC(=O)Cc1ccccc1`, the pKi in assay [1] was 6.06. The pEC50 with Hepatitis C virus was less than 5.00.

As to `C=C[C@@H]1C[C@]1(NC(=O)[C@@H]1C[C@@H](Oc2cc(-c3ccccc3)nc3cc(OC)ccc23)CN1C(=O)[C@@H](NC(=O)OC(C)(C)C)C(C)(C)C)C(=O)Nc1nccs1`, the negative-log Ki (pKi) in assay [1] is 6.09; in assay [2], 8.11; in assay [3] it was 6.53; in assay [4], 6.46. Further, the pEC50 with Hepatitis C virus is less than 5.00.

Turning to `C=C[C@@H]1C[C@]1(NC(=O)[C@@H]1C[C@@H](Oc2cc(-c3ccccc3)nc3cc(OC)ccc23)CN1C(=O)[C@@H](NC(=O)OC(C)(C)C)C(C)(C)C)c1nnc(-c2ccccc2)o1`, the pKi in assay [1] was 5.66. Moreover, the pEC50 with Hepatitis C virus is less than 5.00.

For `C=C[C@@H]1C[C@]1(NC(=O)[C@@H]1C[C@@H](Oc2cc(-c3ccccc3)nc3cc(OC)ccc23)CN1C(=O)[C@@H](NC(=O)OC(C)(C)C)C(C)(C)C)c1nnn[nH]1`, in assay [1], the pKi was 6.67. Also, in the assay with Hepatitis C virus, the pEC50 is 5.55.

In the case of `C=C[C@@H]1C[C@]1(NC(=O)[C@@H]1C[C@@H](Oc2cc(-c3ccccc3)nc3cc(OC)ccc23)CN1C(=O)[C@@H](NC(=O)OC(C)(C)C)C(C)(C)C)C(=O)NNC(=O)c1ccccc1`, the pKi in assay [1] was 5.80. For the same molecule, the pEC50 with Hepatitis C virus is less than 5.00.

Take `C=C[C@@H]1C[C@]1(NC(=O)[C@@H]1C[C@@H](Oc2cc(-c3ccccc3)nc3cc(OC)ccc23)CN1C(=O)[C@@H](NC(=O)OC(C)(C)C)C(C)(C)C)C(=O)N[S+]([O-])c1ccc(C)cc1` (stereo not given in full): in assay [1], the pKi was 8.05. This molecule also had a pEC50 with Hepatitis C virus of 5.74.

Turning to `C=C[C@@H]1C[C@]1(NC(=O)[C@@H]1C[C@@H](Oc2cc(-c3ccccc3)nc3cc(OC)ccc23)CN1C(=O)[C@@H](NC(=O)OC(C)(C)C)C(C)(C)C)C(=O)NO`, in assay [1], the pKi is 6.37. For the same molecule, the pEC50 in the assay with Hepatitis C virus is 5.42.

As to `C=C[C@@H]1C[C@]1(NC(=O)[C@@H]1C[C@@H](Oc2cc(-c3ccccc3)nc3cc(OC)ccc23)CN1C(=O)[C@@H](NC(=O)OC(C)(C)C)C(C)(C)C)C(=O)NNS(=O)(=O)c1ccccc1`, the pKi in assay [1] was 6.85. Further, the pEC50 in the assay with Hepatitis C virus was 5.80.

Turning to `C=C[C@@H]1C[C@]1(NC(=O)[C@@H]1C[C@@H](Oc2cc(-c3ccccc3)nc3cc(OC)ccc23)CN1C(=O)[C@@H](NC(=O)OC(C)(C)C)C(C)(C)C)C(=O)NS(=O)(=O)C1CC1`, in assay [1], the pKi was 10.24. The pEC50 with Hepatitis C virus was 9.05.

As for `C=C[C@@H]1C[C@]1(NC(=O)[C@@H]1C[C@@H](Oc2cc(-c3ccccc3)nc3cc(OC)ccc23)CN1C(=O)[C@@H](NC(=O)OC(C)(C)C)C(C)(C)C)C(=O)NS(=O)(=O)c1ccccc1`, the negative-log Ki (pKi) in assay [1] is 9.47. In the assay with Hepatitis C virus, this molecule had a pEC50 of 8.22.

As to `C=C[C@@H]1C[C@]1(NC(=O)[C@@H]1C[C@@H](Oc2cc(-c3ccccc3)nc3cc(OC)ccc23)CN1C(=O)[C@@H](NC(=O)OC(C)(C)C)C(C)(C)C)C(=O)NCC(F)(F)F`, the pKi in assay [1] was 5.77; in assay [2] it was 7.15; in assay [3], 6.46; in assay [4] it was 6.13. The molecule further gave a pEC50 with Hepatitis C virus of less than 5.70.

`C=C[C@@H]1C[C@]1(NC(=O)[C@@H]1C[C@@H](Oc2cc(-c3ccccc3)nc3cc(OC)ccc23)CN1C(=O)[C@@H](NC(=O)OC(C)(C)C)C(C)(C)C)C(=O)NNCc1ccccc1`: in assay [1], the pKi was 5.96. Also, the pEC50 with Hepatitis C virus is less than 5.00.

In general, pKi refers to the Ki on a negative log10 scale, so that one unit is a factor of ten. By pEC50 is commonly meant the negative decadic logarithm of the EC50, by convention in mol/L. A low value points to a large EC50.
